The results in this text go back to ChEMBL document CHEMBL1134253, “HIV Rev peptides conjugated with peptide nucleic acids and their efficient binding to RRE RNA” (Bioorg Med Chem Lett, 2001).

Assay [1] has as its target Rev responsive element (RRE) RNA. The assay can be described thus: Dissociation constant of compound with Rev-responsive element (RRE) IIB RNA was determined by the competition assay. The format is nucleic-acid assay.
Assay [2] concerns Rev responsive element (RRE) RNA. The assay can be described thus: Ratio of the dissociation constant between Rev37-50 and the PNA-peptide. Format: nucleic-acid assay.

Broadly, the Kd is the equilibrium constant for the complex coming apart. Lower therefore signals tighter binding. In assay [1], `C[C@H](NC(=O)CN(CCNC(=O)CN(CCNC(=O)CCC(=O)O)C(=O)Cn1ccc(N)nc1=O)C(=O)Cn1ccc(N)nc1=O)C(=O)N[C@@H](CCCNC(=N)N)C(=O)N[C@@H](CCCNC(=N)N)C(=O)N[C@@H](CC(N)=O)C(=O)N[C@@H](CCCNC(=N)N)C(=O)N[C@@H](CCCNC(=N)N)C(=O)N[C@@H](CCCNC(=N)N)C(=O)N[C@@H](CCCNC(=N)N)C(=O)N[C@@H](Cc1c[nH]c2ccccc12)C(=O)N[C@@H](CCCNC(=N)N)C(=O)N[C@@H](CCC(=O)O)C(=O)N[C@@H](CCCNC(=N)N)C(=O)N[C@@H](CCC(N)=O)C(=O)N[C@H](CCCNC(=N)N)C(N)=O` showed a Kd of 28 nM. In addition, the Ratio in assay [2] was 3.1. `C[C@H](NC(=O)CN(CCNC(=O)CN(CCNC(=O)CN(CCNC(=O)CCC(=O)O)C(=O)Cn1ccc(N)nc1=O)C(=O)Cn1ccc(N)nc1=O)C(=O)Cn1ccc(N)nc1=O)C(=O)N[C@@H](CCCNC(=N)N)C(=O)N[C@@H](CCCNC(=N)N)C(=O)N[C@@H](CC(N)=O)C(=O)N[C@@H](CCCNC(=N)N)C(=O)N[C@@H](CCCNC(=N)N)C(=O)N[C@@H](CCCNC(=N)N)C(=O)N[C@@H](CCCNC(=N)N)C(=O)N[C@@H](Cc1c[nH]c2ccccc12)C(=O)N[C@@H](CCCNC(=N)N)C(=O)N[C@@H](CCC(=O)O)C(=O)N[C@@H](CCCNC(=N)N)C(=O)N[C@@H](CCC(N)=O)C(=O)N[C@H](CCCNC(=N)N)C(N)=O`: binding in assay [1] was characterised by a dissociation constant (Kd) of 34 nM. For the same molecule, in assay [2], the Ratio worked out at 2.5.

Consider `C[C@H](NC(=O)CCC(=O)O)C(=O)N[C@@H](CCCNC(=N)N)C(=O)N[C@@H](CCCNC(=N)N)C(=O)N[C@@H](CC(N)=O)C(=O)N[C@@H](CCCNC(=N)N)C(=O)N[C@@H](CCCNC(=N)N)C(=O)N[C@@H](CCCNC(=N)N)C(=O)N[C@@H](CCCNC(=N)N)C(=O)N[C@@H](Cc1c[nH]c2ccccc12)C(=O)N[C@@H](CCCNC(=N)N)C(=O)N[C@@H](CCC(=O)O)C(=O)N[C@@H](CCCNC(=N)N)C(=O)N[C@@H](CCC(N)=O)C(=O)N[C@H](CCCNC(=N)N)C(N)=O`, for which, in assay [1], the Kd stood at 86 nM. Moreover, in assay [2], the Ratio is 1. On the same counts, the results for `Cc1cn(CC(=O)N(CCNC(=O)CCC(=O)O)CC(=O)N[C@@H](C)C(=O)N[C@@H](CCCNC(=N)N)C(=O)N[C@@H](CCCNC(=N)N)C(=O)N[C@@H](CC(N)=O)C(=O)N[C@@H](CCCNC(=N)N)C(=O)N[C@@H](CCCNC(=N)N)C(=O)N[C@@H](CCCNC(=N)N)C(=O)N[C@@H](CCCNC(=N)N)C(=O)N[C@@H](Cc2c[nH]c3ccccc23)C(=O)N[C@@H](CCCNC(=N)N)C(=O)N[C@@H](CCC(=O)O)C(=O)N[C@@H](CCCNC(=N)N)C(=O)N[C@@H](CCC(N)=O)C(=O)N[C@H](CCCNC(=N)N)C(N)=O)c(=O)[nH]c1=O` are 39 nM and 2.2. For `C[C@H](NC(=O)CN(CCNC(=O)CN(CCNC(=O)CCC(=O)O)C(=O)Cn1cnc2c(N)ncnc21)C(=O)Cn1ccc(N)nc1=O)C(=O)N[C@@H](CCCNC(=N)N)C(=O)N[C@@H](CCCNC(=N)N)C(=O)N[C@@H](CC(N)=O)C(=O)N[C@@H](CCCNC(=N)N)C(=O)N[C@@H](CCCNC(=N)N)C(=O)N[C@@H](CCCNC(=N)N)C(=O)N[C@@H](CCCNC(=N)N)C(=O)N[C@@H](Cc1c[nH]c2ccccc12)C(=O)N[C@@H](CCCNC(=N)N)C(=O)N[C@@H](CCC(=O)O)C(=O)N[C@@H](CCCNC(=N)N)C(=O)N[C@@H](CCC(N)=O)C(=O)N[C@H](CCCNC(=N)N)C(N)=O`, in that order: 28 nM and 3.1. For `Cc1cn(CC(=O)N(CCNC(=O)CCC(=O)O)CC(=O)NCCN(CC(=O)NCCN(CC(=O)NCCN(CC(=O)NCCN(CC(=O)N[C@@H](C)C(=O)N[C@@H](CCCNC(=N)N)C(=O)N[C@@H](CCCNC(=N)N)C(=O)N[C@@H](CC(N)=O)C(=O)N[C@@H](CCCNC(=N)N)C(=O)N[C@@H](CCCNC(=N)N)C(=O)N[C@@H](CCCNC(=N)N)C(=O)N[C@@H](CCCNC(=N)N)C(=O)N[C@@H](Cc2c[nH]c3ccccc23)C(=O)N[C@@H](CCCNC(=N)N)C(=O)N[C@@H](CCC(=O)O)C(=O)N[C@@H](CCCNC(=N)N)C(=O)N[C@@H](CCC(N)=O)C(=O)N[C@H](CCCNC(=N)N)C(N)=O)C(=O)Cn2ccc(N)nc2=O)C(=O)Cn2cnc3c(=O)[nH]c(N)nc32)C(=O)Cn2ccc(N)nc2=O)C(=O)Cn2cnc3c(=O)[nH]c(N)nc32)c(=O)[nH]c1=O`, in that order: 5.4 nM and 16. Take `C[C@H](NC(=O)CN(CCNC(=O)CN(CCNC(=O)CCC(=O)O)C(=O)Cn1cnc2c(=O)[nH]c(N)nc21)C(=O)Cn1ccc(N)nc1=O)C(=O)N[C@@H](CCCNC(=N)N)C(=O)N[C@@H](CCCNC(=N)N)C(=O)N[C@@H](CC(N)=O)C(=O)N[C@@H](CCCNC(=N)N)C(=O)N[C@@H](CCCNC(=N)N)C(=O)N[C@@H](CCCNC(=N)N)C(=O)N[C@@H](CCCNC(=N)N)C(=O)N[C@@H](Cc1c[nH]c2ccccc12)C(=O)N[C@@H](CCCNC(=N)N)C(=O)N[C@@H](CCC(=O)O)C(=O)N[C@@H](CCCNC(=N)N)C(=O)N[C@@H](CCC(N)=O)C(=O)N[C@H](CCCNC(=N)N)C(N)=O`: the Kd in assay [1] is 16 nM. Besides, the Ratio in assay [2] amounted to 5.4.

Take `C[C@H](NC(=O)CN(CCNC(=O)CCC(=O)O)C(=O)Cn1cnc2c(=O)[nH]c(N)nc21)C(=O)N[C@@H](CCCNC(=N)N)C(=O)N[C@@H](CCCNC(=N)N)C(=O)N[C@@H](CC(N)=O)C(=O)N[C@@H](CCCNC(=N)N)C(=O)N[C@@H](CCCNC(=N)N)C(=O)N[C@@H](CCCNC(=N)N)C(=O)N[C@@H](CCCNC(=N)N)C(=O)N[C@@H](Cc1c[nH]c2ccccc12)C(=O)N[C@@H](CCCNC(=N)N)C(=O)N[C@@H](CCC(=O)O)C(=O)N[C@@H](CCCNC(=N)N)C(=O)N[C@@H](CCC(N)=O)C(=O)N[C@H](CCCNC(=N)N)C(N)=O`: binding in assay [1] was put at a Kd of 30 nM. The Ratio in assay [2] worked out at 2.9. On the same counts, the results for `CC(=O)N(CCNC(=O)NCC(=O)O)CC(=O)N[C@H](C)C(=O)N[C@@H](CCCNC(=N)N)C(=O)N[C@@H](CCCNC(=N)N)C(=O)N[C@@H](CC(N)=O)C(=O)N[C@@H](CCCNC(=N)N)C(=O)N[C@@H](CCCNC(=N)N)C(=O)N[C@@H](CCCNC(=N)N)C(=O)N[C@@H](CCCNC(=N)N)C(=O)N[C@@H](Cc1c[nH]c2ccccc12)C(=O)N[C@@H](CCCNC(=N)N)C(=O)N[C@@H](CCC(=O)O)C(=O)N[C@@H](CCCNC(=N)N)C(=O)N[C@@H](CCC(N)=O)C(=O)N[C@H](CCCNC(=N)N)C(N)=O` are 44 nM and 2.

With `C[C@H](NC(=O)CN(CCNC(=O)CN(CCNC(=O)CN(CCNC(=O)CN(CCNC(=O)CCC(=O)O)C(=O)Cn1cnc2c(=O)[nH]c(N)nc21)C(=O)Cn1ccc(N)nc1=O)C(=O)Cn1cnc2c(=O)[nH]c(N)nc21)C(=O)Cn1ccc(N)nc1=O)C(=O)N[C@@H](CCCNC(=N)N)C(=O)N[C@@H](CCCNC(=N)N)C(=O)N[C@@H](CC(N)=O)C(=O)N[C@@H](CCCNC(=N)N)C(=O)N[C@@H](CCCNC(=N)N)C(=O)N[C@@H](CCCNC(=N)N)C(=O)N[C@@H](CCCNC(=N)N)C(=O)N[C@@H](Cc1c[nH]c2ccccc12)C(=O)N[C@@H](CCCNC(=N)N)C(=O)N[C@@H](CCC(=O)O)C(=O)N[C@@H](CCCNC(=N)N)C(=O)N[C@@H](CCC(N)=O)C(=O)N[C@H](CCCNC(=N)N)C(N)=O`, in assay [1], the equilibrium dissociation constant (Kd) came to 5.7 nM. Besides, the Ratio in assay [2] amounted to 15. Molecule `CC(=O)NCCN(CC(=O)NCCN(CC(=O)NCCN(CC(=O)NCCN(CC(=O)NCCN(CC(=O)N[C@@H](CCCCN)C(=O)CN)C(=O)Cn1ccc(N)nc1=O)C(=O)Cn1cnc2c(O)nc(N)nc21)C(=O)Cn1ccc(N)nc1=O)C(=O)Cn1cnc2c(O)nc(N)nc21)C(=O)Cn1cc(C)c(=O)[nH]c1=O` yielded a Kd in assay [1] above 100000 nM. `C[C@H](NC(=O)CN(CCNC(=O)CCC(=O)O)C(=O)Cn1ccc(N)nc1=O)C(=O)N[C@@H](CCCNC(=N)N)C(=O)N[C@@H](CCCNC(=N)N)C(=O)N[C@@H](CC(N)=O)C(=O)N[C@@H](CCCNC(=N)N)C(=O)N[C@@H](CCCNC(=N)N)C(=O)N[C@@H](CCCNC(=N)N)C(=O)N[C@@H](CCCNC(=N)N)C(=O)N[C@@H](Cc1c[nH]c2ccccc12)C(=O)N[C@@H](CCCNC(=N)N)C(=O)N[C@@H](CCC(=O)O)C(=O)N[C@@H](CCCNC(=N)N)C(=O)N[C@@H](CCC(N)=O)C(=O)N[C@H](CCCNC(=N)N)C(N)=O` registered a Kd in assay [1] of 31 nM. Moreover, in assay [2], the Ratio was determined as 2.8. For `C[C@H](NC(=O)CN(CCNC(=O)CN(CCNC(=O)CN(CCNC(=O)CCC(=O)O)C(=O)Cn1cnc2c(=O)[nH]c(N)nc21)C(=O)Cn1cnc2c(=O)[nH]c(N)nc21)C(=O)Cn1ccc(N)nc1=O)C(=O)N[C@@H](CCCNC(=N)N)C(=O)N[C@@H](CCCNC(=N)N)C(=O)N[C@@H](CC(N)=O)C(=O)N[C@@H](CCCNC(=N)N)C(=O)N[C@@H](CCCNC(=N)N)C(=O)N[C@@H](CCCNC(=N)N)C(=O)N[C@@H](CCCNC(=N)N)C(=O)N[C@@H](Cc1c[nH]c2ccccc12)C(=O)N[C@@H](CCCNC(=N)N)C(=O)N[C@@H](CCC(=O)O)C(=O)N[C@@H](CCCNC(=N)N)C(=O)N[C@@H](CCC(N)=O)C(=O)N[C@H](CCCNC(=N)N)C(N)=O`, in that order: 8.7 nM and 9.9. Take `C[C@H](NC(=O)CN(CCNC(=O)CN(CCNC(=O)CN(CCNC(=O)CCC(=O)O)C(=O)Cn1ccc(N)nc1=O)C(=O)Cn1cnc2c(=O)[nH]c(N)nc21)C(=O)Cn1ccc(N)nc1=O)C(=O)N[C@@H](CCCNC(=N)N)C(=O)N[C@@H](CCCNC(=N)N)C(=O)N[C@@H](CC(N)=O)C(=O)N[C@@H](CCCNC(=N)N)C(=O)N[C@@H](CCCNC(=N)N)C(=O)N[C@@H](CCCNC(=N)N)C(=O)N[C@@H](CCCNC(=N)N)C(=O)N[C@@H](Cc1c[nH]c2ccccc12)C(=O)N[C@@H](CCCNC(=N)N)C(=O)N[C@@H](CCC(=O)O)C(=O)N[C@@H](CCCNC(=N)N)C(=O)N[C@@H](CCC(N)=O)C(=O)N[C@H](CCCNC(=N)N)C(N)=O`: in assay [1], the Kd stood at 9.6 nM. The Ratio in assay [2] stood at 9.

`C[C@H](NC(=O)CN(CCNC(=O)CN(CCNC(=O)CN(CCNC(=O)CCC(=O)O)C(=O)Cn1cnc2c(N)ncnc21)C(=O)Cn1cnc2c(=O)[nH]c(N)nc21)C(=O)Cn1ccc(N)nc1=O)C(=O)N[C@@H](CCCNC(=N)N)C(=O)N[C@@H](CCCNC(=N)N)C(=O)N[C@@H](CC(N)=O)C(=O)N[C@@H](CCCNC(=N)N)C(=O)N[C@@H](CCCNC(=N)N)C(=O)N[C@@H](CCCNC(=N)N)C(=O)N[C@@H](CCCNC(=N)N)C(=O)N[C@@H](Cc1c[nH]c2ccccc12)C(=O)N[C@@H](CCCNC(=N)N)C(=O)N[C@@H](CCC(=O)O)C(=O)N[C@@H](CCCNC(=N)N)C(=O)N[C@@H](CCC(N)=O)C(=O)N[C@H](CCCNC(=N)N)C(N)=O`: binding in assay [1] was characterised by a dissociation constant (Kd) of 15 nM. The Ratio in assay [2] was 5.7.
